Measurements from the supplement of paper PMC4862054.

How the values were obtained:
Assay in all cases: normalised viability (% of control), CellTiter-Blue; higher = more viable cells (about 100 = DMSO control)
Conditions in all cases: incubation time: 72 h
[1] = tested on: HCC1937
In short: (§1)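 Each value is normalised viability at a single listed concentration of the series. Breast cancer cell lines in 384-well plates were incubated 72 h with compound and read by CellTiter-Blue fluorescence at 560/590 nm, with vehicle set to 100 and a positive kill control to 0 on every plate.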

[2] = tested on: CAL-85-1
In short: as §1

[3] = tested on: HCC1143
In short: as §1

[4] = tested on: BT-474
In short: as §1

[5] = tested on: MFM-223
In short: as §1

[6] = tested on: Hs578T
In short: as §1

[7] = tested on: HDQ-P1
In short: as §1

[8] = tested on: MDA-MB-436
In short: as §1

[9] = tested on: HCC1599
In short: as §1

[10] = tested on: CAL-51
In short: as §1

[11] = tested on: DU-4475
In short: as §1

COc1ccc(-c2cc3c(C)nc(N)nc3n([C@H]3CC[C@H](OCCO)CC3)c2=O)cn1
normalised viability [%]
Conditions | 3 nM | 10 nM | 30 nM | 100 nM | 1000 nM | 10000 nM
[1] | – | 68.4 | – | – | 28 | 30.2
[2] | 102 | – | 89.7 | 84.5 | – | –
[3] | – | 111 | – | – | 30.4 | 15
[4] | – | 91.8 | – | – | 14.1 | 0.59
[5] | – | 92 | – | – | 16 | 7.1
[6] | – | 96.1 | – | – | 17.9 | 3.2
[7] | 76.7 | – | 81.6 | 39 | – | –
[8] | – | 103 | – | – | 15.8 | 7.22
[9] | – | 115 | – | – | 35.1 | 28.2
[10] | 99.7 | – | 89.1 | 59 | – | –
[11] | 109 | – | 96.7 | 89 | – | –

Cc1cccc(-c2nn3c(c2-c2ccnc4ccc(C(N)=O)cc24)CCC3)n1
normalised viability [%]
Conditions | 0.3 nM | 1 nM | 3 nM | 10 nM | 100 nM | 1000 nM
[1] | – | 157 | – | – | 108 | 126
[2] | 99.3 | – | 94.2 | 101 | – | –
[3] | – | 98.3 | – | – | 91 | 91.1
[4] | – | 120 | – | – | 110 | 130
[5] | – | 96.6 | – | – | 96.5 | 93.6
[6] | – | 106 | – | – | 112 | 89.9
[7] | 120 | – | 117 | 134 | – | –
[8] | – | 120 | – | – | 96.9 | 128
[9] | – | 86.8 | – | – | 91.6 | 96.8
[10] | 100 | – | 93.8 | 96.5 | – | –
[11] | 113 | – | 100 | 115 | – | –

Cn1cc(CNCC2CCN(c3ncc(C(=O)NO)cn3)CC2)c2ccccc21
normalised viability [%]
Conditions | 0.3 nM | 1 nM | 3 nM | 10 nM | 100 nM | 1000 nM
[1] | – | 69.2 | – | – | 31.8 | 14.7
[2] | 90 | – | 79.9 | 65.1 | – | –
[3] | – | 83 | – | – | 23.6 | 11.1
[4] | – | 97.9 | – | – | 8.46 | 7.06
[5] | – | 88.9 | – | – | 28.5 | 8.06
[6] | – | 128 | – | – | 39.3 | 5.1
[7] | 104 | – | 88.9 | 88.6 | – | –
[8] | – | 94.5 | – | – | 80.6 | 17.7
[9] | – | 101 | – | – | 28 | 14.5
[10] | 116 | – | 115 | 97.2 | – | –
[11] | 88.5 | – | 93.7 | 60 | – | –

O=C(NC[C@H](O)CO)c1ccncc1Nc1ccc(I)cc1F
normalised viability [%]
Conditions | 3 nM | 10 nM | 30 nM | 100 nM | 1000 nM | 10000 nM
[1] | – | 94.6 | – | – | 87.8 | 79.8
[2] | 79.1 | – | 83.4 | 85.7 | – | –
[3] | – | 69.5 | – | – | 55.4 | 50.1
[4] | – | 107 | – | – | 104 | 114
[5] | – | 90.2 | – | – | 86 | 52.2
[6] | – | 114 | – | – | 95.3 | 67.4
[7] | 107 | – | 97.8 | 91.9 | – | –
[8] | – | 92.2 | – | – | 85.6 | 79.2
[9] | – | 108 | – | – | 78 | 67.2
[10] | 111 | – | 88.5 | 85.8 | – | –
[11] | 79.2 | – | 16.4 | 1.76 | – | –

Nc1nc(=O)c2c([nH]1)NCC(CNc1ccc(C(=O)N[C@@H](CCC(=O)O)C(=O)O)cc1)N2C=O (mixture of isomers) [Folinic acid]
normalised viability [%]
Conditions | 0.297 nM | 0.99 nM | 2.97 nM | 9.9 nM | 99 nM | 990 nM
[1] | – | 121 | – | – | 87.8 | 107
[2] | 96.2 | – | 93.9 | 99.8 | – | –
[3] | – | 92.7 | – | – | 95.8 | 92
[4] | – | 106 | – | – | 99.6 | 116
[5] | – | 106 | – | – | 107 | 94.4
[6] | – | 92.2 | – | – | 102 | 96.3
[7] | 122 | – | 115 | 92.2 | – | –
[8] | – | 123 | – | – | 112 | 123
[9] | – | 111 | – | – | 106 | 118
[10] | 94 | – | 92 | 97.6 | – | –
[11] | 110 | – | 85 | 109 | – | –

O=C(Nc1c[nH]nc1-c1nc2ccc(CN3CCOCC3)cc2[nH]1)NC1CC1 [AT9283]
normalised viability [%]
Conditions | 3 nM | 10 nM | 30 nM | 100 nM | 1000 nM | 10000 nM
[1] | – | 106 | – | – | 43.4 | 15.5
[2] | 89.8 | – | 72.8 | 78.6 | – | –
[3] | – | 77.8 | – | – | 51.8 | 13.9
[4] | – | 111 | – | – | 78.8 | 7.58
[5] | – | 93.4 | – | – | 57.4 | 19
[6] | – | 124 | – | – | 33.9 | 1.79
[7] | 113 | – | 97.3 | 81.2 | – | –
[8] | – | 97.4 | – | – | 64.2 | 29.6
[9] | – | 102 | – | – | 72.5 | 11.9
[10] | 107 | – | 97.8 | 56.3 | – | –
[11] | 91.2 | – | 94.1 | 43.9 | – | –

COc1cc(CCc2cc(NC(=O)c3ccc(N4CC(C)NC(C)C4)cc3)n[nH]2)cc(OC)c1 (stereo unspecified) [AZD4547]
normalised viability [%]
Conditions | 0.3 nM | 1 nM | 3 nM | 10 nM | 100 nM | 1000 nM
[1] | – | 157 | – | – | 103 | 115
[2] | 91 | – | 90 | 94.6 | – | –
[3] | – | 94.3 | – | – | 87.9 | 93
[4] | – | 121 | – | – | 119 | 128
[5] | – | 91 | – | – | 50.4 | 12.3
[6] | – | 102 | – | – | 91.2 | 122
[7] | 113 | – | 120 | 117 | – | –
[8] | – | 105 | – | – | 104 | 109
[9] | – | 92.5 | – | – | 77.4 | 18.8
[10] | 120 | – | 107 | 99.8 | – | –
[11] | 92.3 | – | 84 | 103 | – | –
